Test results: patent US20260169011A1, “METHODS AND COMPOSITIONS FOR PROVIDING CUSTOMIZED NUTRITIONAL SUPPLEMENTS” (Vibrant Holdings LLC, priority 2023, published 2026)
Like-named read-outs stand apart in the source and are kept apart here. Values belong to the compound of their own block, whether it stands above or below them.

Key:
[1] = NutriPro test: serum, RBC and WBC nutrient values before and after ATB / customized blend; format: in vivo, human; conditions: for Pre-test biomarker level: before ATB; for Actual Nutrient Value (ANV): before customized blend; for concentration at 3 months: read-out: Follow-up Nutrient Level
Source text: The method for providing a nutritional supplement for a subject as disclosed herein is based on a comprehensive panel that assesses intracellular and extracellular levels of at least or up to 41 nutrients. […] Blood analysis using the method disclosed herein tests for nutrient levels in serum, red blood cells (RBCs), and white blood cells (WBCs). Additional genetic testing can assess patients' predispositions toward nutrient deficiencies. Based on the blood and genetic analysis results, a subsequent supplementation diet comprising supplements and food sources can be designed and implemented. The subject can be a human subject.
In some embodiments, the detection method is mass spectrometry.
The ‘NutriPro’ test is used to assess serum (extracellular), RBC, and WBC (intracellular) nutrient values along with genetic testing for any predispositions with could be affecting nutrient values in the body. If required, additional tests such as the gut zoomer, cardiovascular health, thyroid test, kidney function test, liver function test, etc, are carried out. FIG. 1 provides a schematic diagram of the process of the NutriPro test from the individual subject to the creation of customized nutritional blends.
The ATB is given to the individual for nutritional supplementation, and blood testing for nutrients in serum, RBC, and WBC is carried out after 3 or 6 months.
The assessed change is called the VAF.
After testing, the individual takes the ATB or the customized blend for the amount of time indicated.

[2] = cited from earlier work
[3] = Vibrant Absorption Factor (VAF): difference of post- and pre-supplementation nutrient values divided by ATB dosage
Source text: Improvement in nutrition can be determined by comparing the nutrient values in serum, RBC, and WBCs post-nutritional supplementation to the nutrient values in serum, RBC, and WBCs pre-nutritional supplementation. Based on the improvement, the change in the nutrient levels can be attributed to the per milligram dosage of the supplemented nutrients. The assessed nutritional change is the “Vibrant Absorption factor (VAF (see Equation (1) below). The VAF can be used to determine the subject's utilization of the supplemented nutrients, as determined by the difference in extracellular and intracellular nutrient values before and after supplementation. Based on the subject's utility or absorption of the nutrients, the dosage amount of the nutrient needed to be supplemented or increased to effect change of the subject's nutrient values into the optimum nutrient zone can be assessed. In various embodiments, the VAF is determined by administering a pre-determined formulation, referred to herein as the Absorption Testing Blend.
Next, the ATB is administered to the individual for a predefined period at step 320a, after which nutrient levels and the genetic nutrient profile are re-evaluated, to obtain the post-supplementation biomarker values at step 330.
This includes determining the VAF based on the difference between post- and pre-supplementation biomarker values, which is divided by the ATB dosage.
The assessed change is called the VAF. The VAF is used to understand how the individual's body is utilizing these nutrients, depending on the difference in extracellular and intracellular nutrient values before and after supplementation. Based on the body's utility or absorption of the nutrients, the amount of nutrients needed to be supplemented to alter the individual's nutrient values into the optimum nutrient zone is understood. The VAF calculations help in determining the appropriate dosages of nutrients required in the ‘customized blend.’

[4] = person one, serum, after customized blend
[5] = person three, serum, after customized blend
[6] = person two, serum, after customized blend
[7] = person two, cells, after customized blend
[8] = person two, level: Questionnaire
[9] = human, in vivo, Level: Questionnaire, person, after customized blend
[10] = person one, level: Questionnaire

Compound: O=C(O)c1cccnc1 [Vitamin B3]
- Post-test biomarker level ([1]; person one, serum, after ATB): 3.9 ng/mL
- Follow-up Biomarker level [1, 4]: 70.1 ng/mL
- Pre-test biomarker level ([1]; person one, serum): 1.1 ng/mL
- UTL ([2]; Table 18, person one): 35 mg/day
- VAF ([3]; person one, serum): 0.7

Compound: Cc1c(C)c2c(c(C)c1O)CC[C@@](C)(CCC[C@H](C)CCC[C@H](C)CCCC(C)C)O2 [Vitamin E (alpha-tocopherol)]
- UTL ([2]; upper tolerable limit): 1,100 IU/day

Compound: CC[C@H](C)[C@H](N)C(=O)O [Isoleucine]
- Follow-up Nutrient Level [1, 5]: 144 nmol/mL
- Actual Nutrient Value (ANV) ([1]; person three, serum): 26.2 nmol/mL
- Post-test biomarker level ([1]; person two, serum, after ATB): 44 nmol/mL
- Follow-up Biomarker level [1, 6]: 149 nmol/mL
- Pre-test biomarker level ([1]; person two, serum): 14.2 nmol/mL
- VAF ([3]; person two, serum): 8.514

- Follow-up Nutrient Level ([1]; person three, cells, after customized blend): 14.4 pg/MM WBC
- Actual Nutrient Value (ANV) ([1]; person three, cells): 0.4 pg/MM WBC
- Follow-up Nutrient Level [1, 5]: 1280 ng/mL
- Actual Nutrient Value (ANV) ([1]; person three, serum): 350 ng/mL
- Post-test biomarker level ([1]; person two, cells, after ATB): 2.1 pg/MM WBC
- Follow-up Biomarker level [1, 7]: 14.5 pg/MM WBC
- Pre-test biomarker level ([1]; person two, cells): 0.2 pg/MM WBC
- Post-test biomarker level ([1]; person two, serum, after ATB): 470 ng/mL
- Follow-up Biomarker level [1, 6]: 1290 ng/mL
- Pre-test biomarker level ([1]; person two, serum): 220 ng/mL
- VAF ([3]; person two, cells): 0.0019
- VAF ([3]; person two, serum): 0.025
Compound: Vitamin A
- UTL ([2]; Table 19, person two): 10,000 IU/day
- UTL ([2]; Table 20, person three): 10,000 IU/day

Compound: [Cr] [Chromium]
- Follow-up Nutrient Level [1, 5]: 0.277 ng/mL
- Actual Nutrient Value (ANV) ([1]; person three, serum): 0.133 ng/mL

Compound: [Na] [Sodium]
- UTL ([2]; upper tolerable limit): 2,300 mg/day

Compound: C[N+](C)(C)C[C@H](O)CC(=O)[O-] [Free Carnitine]
- UTL ([2]; upper tolerable limit): 2000 mg/day

Compound: CC(C)[C@H](N)C(=O)O [L-Valine]
- Post-test biomarker level ([1]; person one, serum, after ATB): 4.7e+10 nmol/mL
- Follow-up Biomarker level [1, 4]: 322 nmol/mL
- Pre-test biomarker level ([1]; person one, serum): 12 nmol/mL
- VAF ([3]; person one, serum): 8.75

Compound: CC1=C(C/C=C(\C)CCC[C@H](C)CCC[C@H](C)CCCC(C)C)C(=O)c2ccccc2C1=O [Vitamin K1]
- Follow-up Nutrient Level [1, 5]: 12.3 ng/mL
- Actual Nutrient Value (ANV) ([1]; person three, serum): 0.07 ng/mL
- Post-test biomarker level ([1]; person two, serum, after ATB): 1.7 ng/mL
- Follow-up Biomarker level [1, 6]: 12.4 ng/mL
- Pre-test biomarker level ([1]; person two, serum): 0.08 ng/mL
- VAF ([3]; person two, serum): 0.081

Compound: CC(C)C[C@H](N)C(=O)O [Leucine]
- Follow-up Nutrient Level [1, 5]: 225 nmol/m
- Actual Nutrient Value (ANV) ([1]; person three, serum): 85 nmol/m

Compound: C[N+](C)(C)CCO [Choline]
- UTL ([2]; upper tolerable limit): 3,500 mg/day

Compound: O=C1O[C@H]([C@@H](O)CO)C(O)=C1O [Vitamin C (L-Ascorbic acid)]
- UTL ([2]; upper tolerable limit): 2000 mg/day

Compound: [Mg] [Magnesium]
- Post-test biomarker level ([1]; person one, serum, after ATB): 17000 ng/mL
- Follow-up Biomarker level [1, 4]: 25200 ng/mL
- Pre-test biomarker level ([1]; person one, serum): 5000 ng/mL
- UTL ([2]; Table 18, person one): 350 mg/day
- VAF ([3]; person one, serum): 0.012

Compound: CC(C)C[C@H](N)C(=O)O [L-Leucine]
- Post-test biomarker level ([1]; person one, serum, after ATB): 101 nmol/m
- Follow-up Biomarker level [1, 4]: 222 nmol/m
- Pre-test biomarker level ([1]; person one, serum): 82 nmol/m
- VAF ([3]; person one, serum): 5.429

Compound: [Zn] [Zinc]
- Post-test biomarker level ([1]; person one, cells, after ATB): 4.8 ng/MM WBC
- Follow-up Biomarker level ([1]; person one, cells, after customized blend): 14.1 ng/MM WBC
- Pre-test biomarker level ([1]; person one, cells): 2.8 ng/MM WBC
- Follow-up Nutrient Level [1, 5]: 1550 ng/mL
- Actual Nutrient Value (ANV) ([1]; person three, serum): 500 ng/mL
- Post-test biomarker level ([1]; person two, level: Questionnaire, after ATB): 1100 ng/mL
- Follow-up Biomarker level ([1]; person two, level: Questionnaire, after customized blend): 1470 ng/mL
- Pre-test biomarker level [1, 8]: 750 ng/mL
- UTL ([2]; Table 18, person one): 40 mg/day
- UTL ([2]; Table 19, person two): 40 mg/day
- UTL ([2]; Table 20, person three): 40 mg/day
- VAF ([3]; person one, cells): 1.333
- VAF [3, 8]: 0.2333

Compound: Cc1cc2nc3c(=O)[nH]c(=O)nc-3n(C[C@H](O)[C@H](O)[C@H](O)CO)c2cc1C [Vitamin B2]
- Follow-up Nutrient Level [1, 5]: 231 ng/mL
- Actual Nutrient Value (ANV) ([1]; person three, serum): 5.5 ng/mL

Compound: COC1=C(OC)C(=O)C(C/C=C(\C)CC/C=C(\C)CC/C=C(\C)CC/C=C(\C)CC/C=C(\C)CC/C=C(\C)CC/C=C(\C)CC/C=C(\C)CC/C=C(\C)CCC=C(C)C)=C(C)C1=O [Coenzyme Q10]
- Follow-up Nutrient Level [1, 5]: 1990 ng/mL
- Actual Nutrient Value (ANV) ([1]; person three, serum): 100 ng/mL
- UTL ([2]; Table 20, person three): 1,200 mg/day

Compound: [Zn] [Zinc, Zn 67]
- UTL ([2]; upper tolerable limit): 40 mg/day

Compound: [Fe] [Iron, Fe 56]
- UTL ([2]; upper tolerable limit): 45 mg/day

Compound: [Mn+2] [Manganese]
- Post-test biomarker level ([1]; person two, cells, after ATB): 7.8 pg/MM WBC
- Follow-up Biomarker level [1, 7]: 67.5 pg/MM WBC
- Pre-test biomarker level ([1]; person two, cells): 0.5 pg/MM WBC
- Post-test biomarker level ([1]; person two, serum, after ATB): 0.62 ng/mL
- Follow-up Biomarker level [1, 6]: 2.1 ng/mL
- Pre-test biomarker level ([1]; person two, serum): 0.4 ng/mL
- UTL ([2]; Table 19, person two): 11 mg/day
- VAF ([3]; person two, cells): 7.684
- VAF ([3]; person two, serum): 0.2316

- Post-test biomarker level ([1]; person one, cells, after ATB, unit not given): 1.7
- Follow-up Biomarker level ([1]; person one, cells, after customized blend, unit not given): 10.3
- Pre-test biomarker level ([1]; person one, cells, unit not given): 0.2
- Post-test biomarker level ([1]; person one, serum, after ATB): 0.205 ng/mL
- Follow-up Biomarker level [1, 4]: 1.17 ng/mL
- Pre-test biomarker level ([1]; person one, serum): 0.105 ng/mL
- Post-test biomarker level ([1]; person two, serum, after ATB): 0.147 ng/mL
- Follow-up Biomarker level [1, 6]: 1.122 ng/mL
- Pre-test biomarker level ([1]; person two, serum): 0.094 ng/mL
- VAF ([3]; person one, cells): 3.75
- VAF ([3]; person one, serum): 250
- VAF ([3]; person two, serum): 132.5
Compound: Vitamin B12

Compound: CC(C)[C@H](N)C(=O)O [Valine]
- Follow-up Nutrient Level [1, 5]: 332 nmol/mL
- Actual Nutrient Value (ANV) ([1]; person three, serum): 26 nmol/mL

Compound: CC1=C(/C=C/C(C)=C/C=C/C(C)=C/CO)C(C)(C)CCC1 [Vitamin A (Retinol)]
- UTL ([2]; upper tolerable limit): 10,000 IU/day

Compound: [Cu] [Copper, Cu 63]
- UTL ([2]; upper tolerable limit): 10 mg/day

Compound: [76Se] [Selenium, Se 76]
- UTL ([2]; upper tolerable limit): 0.4 mg/day

- Post-test biomarker level ([1]; female, human, in vivo): 67 nmol/mL
- Follow-up Biomarker level [1, 6]: 232 nmol/mL
- Pre-test biomarker level ([1]; person two, serum): 58 nmol/mL
- VAF ([3]; person two, serum): 0.9
Compound: N=C(N)NCCC[C@H](N)C(=O)O [L-Arginine]

Compound: [24Mg] [Magnesium, Mg 24]
- UTL ([2]; upper tolerable limit): 350 mg/day

- Post-test biomarker level ([1]; female, human, in vivo): 12.9 nmol/mL
- Follow-up Biomarker level [1, 6]: 47.5 nmol/mL
- Pre-test biomarker level ([1]; person two, serum): 7.4 nmol/mL
- VAF ([3]; person two, serum): 0.55
Compound: O[C@H]1[C@H](O)[C@@H](O)[C@H](O)[C@@H](O)[C@H]1O [Myo-Inositol]

Compound: [Mn] [Manganese, Mn 55]
- UTL ([2]; upper tolerable limit): 11 mg/day

- Actual Nutrient Value (ANV) ([1]; Level: Questionnaire, person): 84 nmol/mL
- concentration at 3 months [1, 9]: 89.5 µM
- Follow-up Biomarker level ([1]; male, human, in vivo): 234 nmol/mL
- Post-test biomarker level ([1]; male, human, in vivo): 162 nmol/mL
- Pre-test biomarker level [1, 10]: 135 nmol/mL
- VAF [3, 10]: 2.7
Compound: N=C(N)NCCC[C@H](N)C(=O)O [Arginine]

- Post-test biomarker level ([1]; person one, serum, after ATB): 14.9 nmol/mL
- Follow-up Biomarker level [1, 4]: 42.5 nmol/mL
- Pre-test biomarker level ([1]; person one, serum): 9.5 nmol/mL
- Follow-up Nutrient Level ([1]; person three, level: Questionnaire, after customized blend): 43.2 nmol/mL
- Actual Nutrient Value (ANV) ([1]; person three, level: Questionnaire): 24 nmol/mL
- VAF ([3]; person one, serum): 1.08
Compound: C[N+](C)(C)CC(O)CC(=O)[O-] (stereo not shown) [Carnitine]
- UTL ([2]; Table 18, person one): 2000 mg/day
- UTL ([2]; Table 20, person three): 2000 mg/day

Compound: N[C@@H](CO)C(=O)O [Serine]
- Follow-up Nutrient Level [1, 5]: 131 nmol/mL
- Actual Nutrient Value (ANV) ([1]; person three, serum): 62 nmol/mL
- UTL ([2]; Table 20, person three): 12000 mg/day

- Follow-up Nutrient Level ([1]; person three, cells, after customized blend, unit not given): 1.2
- Actual Nutrient Value (ANV) ([1]; person three, cells, unit not given): 0.46
Compound: CC/C=C\C/C=C\C/C=C\C/C=C\C/C=C\CCCCCC(=O)O [DPA, docosapentaenoic acid]

- Post-test biomarker level ([1]; person one, serum, after ATB): 0.017 ng/mL
- Follow-up Biomarker level [1, 4]: 0.1017 ng/mL
- Pre-test biomarker level ([1]; person one, serum): 0.01 ng/mL
- VAF ([3]; person one, serum): 0.0007
Compound: Vitamin K2

Compound: [44Ca] [Calcium, Ca 44]
- UTL ([2]; upper tolerable limit): 2,500 mg/day

- Actual Nutrient Value (ANV) ([1]; Level: Questionnaire, person): 19.2 nmol/mL
- concentration at 3 months [1, 9]: 24.9 µM
- Post-test biomarker level ([1]; person two, serum, after ATB): 16.7 nmol/mL
- Follow-up Biomarker level [1, 6]: 43.4 nmol/mL
- Pre-test biomarker level ([1]; person two, serum): 9.1 nmol/mL
- VAF ([3]; person two, serum): 0.76
Compound: NC(=O)NCCC[C@H](N)C(=O)O [Citrulline]
